For one data set, the target named is T1, Acyl-CoA desaturase 1 (Mus musculus, UniProt P13516).
T1 sequence (P13516 whole entry): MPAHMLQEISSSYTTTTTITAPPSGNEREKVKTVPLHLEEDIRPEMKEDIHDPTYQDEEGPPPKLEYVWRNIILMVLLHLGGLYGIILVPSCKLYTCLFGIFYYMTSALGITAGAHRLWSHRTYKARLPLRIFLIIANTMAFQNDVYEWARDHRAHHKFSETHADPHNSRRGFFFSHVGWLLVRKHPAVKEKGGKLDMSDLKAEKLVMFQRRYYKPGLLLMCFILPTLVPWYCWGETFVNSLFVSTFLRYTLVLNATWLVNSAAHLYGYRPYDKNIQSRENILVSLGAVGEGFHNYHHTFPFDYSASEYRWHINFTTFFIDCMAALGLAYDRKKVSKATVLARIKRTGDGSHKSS
The experiment in a line: Inhibition of mouse SCD1.

A short description of data set [1]: Inhibition of human recombinant SCD1 expressed in baculovirus/insect cell system.
Data set [2] is described as follows: Clearance in mouse plasma. Type of data set: ADME, organism-based.
A short description of data set [3]: Volume of distribution at steady state in mouse. Type of data set: ADME, organism-based. The following applies: in vivo, read-out: Vdss.
A short description of data set [4]: Oral bioavailability in mouse. Type of data set: ADME, organism-based. The following applies: in vivo.
Data set [5] deals with Cytochrome b5 (Homo sapiens) (UniProt P00167). The experiment in a line: Inhibition of cytochrome b5 at >10 uM.
Data set [6] is described as follows: Inhibition of cytochrome b5 reductase at >10 uM.
The test system of data set [7] is Mus musculus. The experiment in a line: Reduction in desaturation index in liver of ob/ob mouse assessed as ratio of C16:0/C16:1n7 at 10 mg/kg bid. Format: functional, organism-based. Also on record: dose 10 mg/kg.
Data set [8] relates to Mus musculus. The experiment in a line: Reduction in desaturation index in liver of ob/ob mouse assessed as ratio of C18:0/C18:1n9 at 10 mg/kg bid. Also on record: dose 10 mg/kg. Type of data set: functional, organism-based.
Data set [9] has as its system Mus musculus. The experiment in a line: Reduction in desaturation index in plasma of ob/ob mouse assessed as ratio of C18:0/C18:1n9 at 10 mg/kg bid. Format: functional, organism-based. Set-up: dose 10 mg/kg.
The subject of data set [10] is Mus musculus. Nature of the data set: Reduction in desaturation index in plasma of ob/ob mouse assessed as ratio of C16:0/C16:1n7 at 10 mg/kg bid. Type of data set: functional, organism-based. Set-up: dose 10 mg/kg.
The species named for data set [11] is Mus musculus. The experiment in a line: Reduction in triglyceride desaturation index in ob/ob mouse. Type of data set: functional, organism-based.
Data set [12] deals with Mus musculus. The experiment in a line: Reduction in desaturation index in liver of ob/ob mouse assessed as ratio of C16:0/C16:1n7 at 30 mg/kg bid. Type of data set: functional, organism-based. Also on record: dose 30 mg/kg.
Data set [13] deals with Mus musculus. The experiment in a line: Reduction in desaturation index in liver of ob/ob mouse assessed as ratio of C18:0/C18:1n9 at 30 mg/kg bid. Also on record: dose 30 mg/kg. Type of data set: functional, organism-based.
The test system of data set [14] is Mus musculus. Nature of the data set: Reduction in desaturation index in plasma of ob/ob mouse assessed as ratio of C16:0/C16:1n7 at 30 mg/kg bid. Type of data set: functional, organism-based. Also on record: dose 30 mg/kg.
In data set [15] the test system is Mus musculus. The experiment in a line: Reduction in desaturation index in plasma of ob/ob mouse assessed as ratio of C18:0/C18:1n9 at 30 mg/kg bid. Type of data set: functional, organism-based. Set-up: dose 30 mg/kg.

The source made the active and inactive calls. The rule behind the calls is not given here. Where only a bound is given, the exact number is not on record here.

In general, IC50 refers to the point on the concentration scale where inhibition reaches its midpoint. For orientation: clearance means a measure of how efficiently the substance is removed, as volume per time. The low end stands for inefficient removal, the high end for efficient removal. The bioavailability is dose-corrected exposure relative to a reference, in per cent. The low end stands for little systemic uptake, the high end for much systemic uptake.

Cytochrome b5 (Homo sapiens), sequence (P00167 whole entry): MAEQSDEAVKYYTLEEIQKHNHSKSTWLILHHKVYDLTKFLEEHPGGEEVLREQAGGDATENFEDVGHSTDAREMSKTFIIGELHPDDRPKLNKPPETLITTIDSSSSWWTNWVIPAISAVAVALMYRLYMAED

As for `CC(C)NC(=O)c1cccc(NC(=O)N2CCC(Oc3ccccc3Cl)CC2)c1`, the IC50 against Acyl-CoA desaturase 1 was 810 nM; in data set [1], 7100 nM.
`CCNC(=O)c1cccc(NC(=O)N2CCC(Oc3ccccc3Cl)CC2)c1`: the IC50 against Acyl-CoA desaturase 1 was 8 nM; in [1] it was 150 nM.
For the molecule `CNC(=O)c1ccc(NC(=O)N2CCN(C(=O)c3ccccc3C(F)(F)F)CC2)cc1`, on Acyl-CoA desaturase 1, the IC50 was above 10000 nM.
As for `CNC(=O)c1cccc(NC(=O)N2CCC(Oc3ccccc3Cl)CC2)c1`, the IC50 at Acyl-CoA desaturase 1 was below 4 nM; in [1], 37 nM. In data set [2], this molecule showed a clearance of 6.67 mL/min/kg. The Vd in data set [3] is 0.4 L/kg. In [4], this molecule had a bioavailability of 92%. Further, the result in data set [5] and in [6] was inactive. The outcome with Mus musculus [7], in the data set on Mus musculus [8], in the data set on Mus musculus [9] and with Mus musculus [10] was Active. Also, the Activity result in the data set listed under Mus musculus [11] was “Dose-dependent effect”.
For `CNC(=O)c1cccc(NC(=O)N2CCC(Oc3ccccc3)CC2)c1`, the IC50 came to 370 nM on Acyl-CoA desaturase 1 and 4000 nM in data set [1].
With `CNC(=O)c1cccc(NC(=O)N2CCC(Oc3cccc(Cl)c3)CC2)c1`, the IC50 at Acyl-CoA desaturase 1 came out at 20 nM; in data set [1], 270 nM.
On to `NC(=O)c1cccc(NC(=O)N2CCC(Oc3ccccc3Cl)CC2)c1`, for which the IC50 was found to be 10 nM against Acyl-CoA desaturase 1 and 59 nM in data set [1].
The corresponding values for `CC(C)(C)NC(=O)c1cccc(NC(=O)N2CCC(Oc3ccccc3Cl)CC2)c1` are above 10000 nM and above 10000 nM.
In the case of `CNC(=O)c1cccc(NC(=O)N2CCC(Oc3ccccc3Br)CC2)c1`, the concentration for half-maximal inhibition (IC50) on Acyl-CoA desaturase 1 is below 4 nM; in [1] it was 30 nM.
As for `CNC(=O)c1cccc(NC(=O)N2CCC(Oc3ccccc3C)CC2)c1`, the values for the IC50 (against Acyl-CoA desaturase 1; in data set [1]) were 17 nM and 120 nM, respectively.
On to `CNC(=O)c1cccc(NC(=O)N2CCC(Oc3cc(F)ccc3Cl)CC2)c1`, for which the IC50 against Acyl-CoA desaturase 1 was below 4 nM; in [1], 18 nM.
For the molecule `CNC(=O)c1cccc(NC(=O)N2CCN(C(=O)c3ccccc3C(F)(F)F)CC2)c1`, on Acyl-CoA desaturase 1, the IC50 came to 700 nM.
With `CNC(=O)c1cccc(NC(=O)N2CCC(Oc3ccccc3F)CC2)c1`, the IC50 was 98 nM on Acyl-CoA desaturase 1 and 680 nM in [1]. Further, the outcome in the data set on Mus musculus [12], in the data set with Mus musculus [13], in the data set on Mus musculus [14] and in the data set with Mus musculus [15] was Active.
For the molecule `O=C(Nc1ccccc1)N1CCC(Oc2ccccc2Cl)CC1`, the IC50 against Acyl-CoA desaturase 1 was 590 nM; in data set [1], 7500 nM.
The corresponding values for `CNC(=O)c1cccc(NC(=O)N2CCC(Oc3c(F)cccc3Cl)CC2)c1` are 330 nM and 9700 nM.
On to `Cc1noc(-c2cccc(NC(=O)N3CCC(Oc4ccccc4Cl)CC3)c2)n1`, for which the results for the IC50 (against Acyl-CoA desaturase 1; in [1]) were 8 nM and 110 nM, respectively.
On to `CNC(=O)c1cccc(NC(=O)N2CCC(Oc3ccccc3OC)CC2)c1`, for which the IC50 at Acyl-CoA desaturase 1 was 81 nM; in data set [1], 1900 nM.
The corresponding values for `CNC(=O)c1cccc(NC(=O)N2CCC(Oc3ccc(F)cc3Cl)CC2)c1` are 6 nM and 58 nM.
For `O=C(Nc1cccc(-c2ncc[nH]2)c1)N1CCC(Oc2ccccc2Cl)CC1`, the IC50 turned out to be 10 nM at Acyl-CoA desaturase 1 and 360 nM in data set [1].

Source of the values: ChEMBL document CHEMBL1155886, “Discovery of piperidine-aryl urea-based stearoyl-CoA desaturase 1 inhibitors” (Bioorg Med Chem Lett, 2008).
